Patent US20100168216A1, “PROSTAGLANDIN PHARMACEUTICAL COMPOSITIONS” (CTG PHARMA S.R.L., priority 2007, published 2010)

Key:
[1] = system: IOP (Intraocular Pressure); assay: Studies of IOP (intraocular pressure) on rabbit; type: in vivo, New Zealand albino rabbits; conditions: IOP mmHg as % of PEG value (100); topical application of 2% test compound, measured 60 minutes after
Description: The method by Osborne N. N. et al. (2002) previously reported was used. Briefly, two groups of adult male New Zealand albino rabbits weighing 3-3.5 kg were used in the experiments. IOP was measured using a properly calibrated tonometer immediately after topical application of 1 drop of 0.4% benoxinate hydrochloride. The animals received a topical application of 2% of test compound or PEG and measures taken 60 minutes after. Results are expressed as % value to the IOP mmHg values of the treatment groups, taking PEG value as 100.

[2] = system: Thy-1 mRNA; assay: Studies on rat retina: NMDA-induced loss of Thy-1 mRNA (neuroprotection); type: in vivo, Wistar rats; conditions: Thy-1 mRNA levels (relative to rhodopsin), PEG value taken as 100; topical 5 μl of 2% in 50% PEG bilaterally twice a day, 2 days before and 7 days after intravitreal NMDA
Description: The method described by Osborne N. N. et al. (2002) previously reported was used. Briefly, two groups of 16 Wistar rats (200-250 g) received either 5 μl doses of topical test compound (2% in 50% polyethylene glycol-PEG) or 5 μl of vehicle bilaterally twice a day for 2 days. On the third day N-methyl-D-aspartate (NMDA) (5 μl in sterile water) was injected intra-vitreally into a single eye of each animal. The other eye was injected with sterile water. The animals were treated then with test compound or vehicle for 7 days. The Thy-1 antigen is associated with ganglion cells and intraocular injections of NMDA cause a loss of Thy-1 mRNA. The rats were then killed and the retinas removed for mRNA analysis for Thy-1 antigen. Results are expressed as % value to the Thy-1 mRNA levels (relative to rhodopsin) of the treated groups, taking PEG value as 100.

O=C(CCCC=CC[C@@H]1[C@@H](CC[C@@H](O)CCc2ccccc2)[C@H](O)C[C@@H]1O)Oc1ccc(-c2cc(=S)ss2)cc1 (stereo in doubt) [Compound Example 2, (5Z)-7-[(1R,2R,3R,5S)-3,5-dihydroxy-2-[(3R)-3-hydroxy-5-phenylpentyl]cyclopentyl]-5-heptenoic acid 4-(3H-1,2-dithiole-3-thione-5-yl)-phenyl ester]
IOP values (%) [1]: 85% | NMDA effects (%) [2]: 52%
